Test systems include CCRF-CEM leukemia; HCT-116 colon; K-562 leukemia; MALME-3M melanoma; NCI-H23 lung; NCI/ADR-RES ovarian; PC-3 prostate; TK-10 renal; UACC-257 melanoma; RPMI-8226 leukemia.
Test in all cases: growth of human tumour cells (NCI), 48 h

The structures appear in SMILES notation. Where “and” joins values, the source holds several entries; their conditions need not be identical. Identical values can stand only once.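 Five concentrations, 48 hours, 96-well plates. Here, GI50 denotes the concentration required for 50% inhibition of growth. The concentration for full growth arrest is given as TGI.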 A value given as a limit tells only on which side of the number the result lay.

Take `CN(C)C/C=C/C(=O)Nc1ccc(C(=O)Nc2cccc(Nc3ncc(Cl)c(-c4c[nH]c5ccccc45)n3)c2)cc1`: the GI50 in the assay on CCRF-CEM leukemia is below 0.01 µM; in the assay with HCT-116 colon, below 0.0131 µM; in the assay with K-562 leukemia, below 0.0148 µM; in the assay with MALME-3M melanoma, 0.0212 µM; in the assay with NCI-H23 lung, 0.0257 µM; in the assay on NCI/ADR-RES ovarian, 1.54 µM. Also, the results for the GI50 with PC-3 prostate, in the assay with TK-10 renal and with UACC-257 melanoma were 0.0315 µM, 0.0602 µM and 0.0216 µM, respectively. The TGI was above 100 µM in the assay with CCRF-CEM leukemia; above 100 µM in the assay with K-562 leukemia; 0.0873 µM in the assay with MALME-3M melanoma; 0.133 µM in the assay with NCI-H23 lung; above 100 µM in the assay on NCI/ADR-RES ovarian; 0.191 µM with PC-3 prostate. Besides, the values for the TGI in the assay with TK-10 renal and in the assay on UACC-257 melanoma were 1.34 µM and above 100 µM, respectively.

Turning to `CN(C)Cc1ccc(O)c(CN(C)C)n1`, the TGI with HCT-116 colon, in the assay on K-562 leukemia, with MALME-3M melanoma, in the assay on NCI-H23 lung, in the assay on NCI/ADR-RES ovarian and in the assay with PC-3 prostate was above 100 µM in each case. Also, the TGI in the assay with RPMI-8226 leukemia, in the assay with TK-10 renal and in the assay with UACC-257 melanoma was above 100 µM throughout.

Take `O=C1NC(c2cccc3ccccc23)Nc2ccc(Cl)cc21` (stereo not drawn): the TGI is 0.0512 µM in the assay on CCRF-CEM leukemia; 12.1 µM in the assay with HCT-116 colon; 37.7 µM with MALME-3M melanoma; 14.9 µM in the assay with NCI-H23 lung; 0.0115 µM in the assay on NCI/ADR-RES ovarian; 0.0148 µM and 0.0143 µM in the assay with PC-3 prostate. Also, the GI50 with NCI-H23 lung was 0.011 µM.

Take `CCN1CCCCCCCCCC(=N/O)/C(=N\O)C1`: the TGI in the assay with CCRF-CEM leukemia, with HCT-116 colon, in the assay with K-562 leukemia, in the assay with MALME-3M melanoma, in the assay with NCI-H23 lung and in the assay with NCI/ADR-RES ovarian was above 100 µM throughout. Besides, the TGI in the assay with PC-3 prostate, with TK-10 renal and with UACC-257 melanoma was above 100 µM throughout.

Take `Oc1c(Cl)cc(Cl)c(Cl)c1Cc1c(O)c(Cl)cc(Cl)c1Cl`: the GI50 in the assay with HCT-116 colon was 0.41 µM; in the assay on MALME-3M melanoma, 1.66 µM; in the assay on NCI-H23 lung, 0.593 µM; with NCI/ADR-RES ovarian, 0.453 µM; in the assay with PC-3 prostate it was 0.498 µM; in the assay on TK-10 renal it was 3.04 µM. Moreover, in the assay on UACC-257 melanoma, the GI50 is 2.06 µM. Besides, the TGI was 10.2 µM with HCT-116 colon; 5.93 µM in the assay with MALME-3M melanoma; 12 µM in the assay on NCI-H23 lung; 10.8 µM with NCI/ADR-RES ovarian; 10.6 µM with PC-3 prostate; 35.5 µM with TK-10 renal. In the assay on UACC-257 melanoma, this compound returned a TGI of 9.3 µM.

In the case of `COc1ccc(-c2cc(-c3ccc(Cl)cc3)nc(SCCCC(=O)NO)n2)cc1OC`, the GI50 is 0.488 µM in the assay with CCRF-CEM leukemia; 0.433 µM with HCT-116 colon; 1.6 µM in the assay with MALME-3M melanoma; 1.29 µM in the assay with NCI-H23 lung; 0.368 µM with NCI/ADR-RES ovarian; 0.944 µM in the assay with PC-3 prostate. For the same compound, the GI50 is 0.946 µM with RPMI-8226 leukemia, 0.537 µM in the assay on TK-10 renal and 1.81 µM in the assay with UACC-257 melanoma. For the same compound, the TGI is 33.4 µM in the assay with CCRF-CEM leukemia; above 100 µM with HCT-116 colon; 5.64 µM in the assay on MALME-3M melanoma; 5.53 µM in the assay with NCI-H23 lung; 2.54 µM with NCI/ADR-RES ovarian; 3.03 µM in the assay with PC-3 prostate. In addition, the TGI turned out to be 7.44 µM with RPMI-8226 leukemia, 8.28 µM with TK-10 renal and 4.89 µM in the assay with UACC-257 melanoma.

With `Cc1c(Br)c(Br)c2c3c1nc(N1CCNCC1)n3CCC2`, the GI50 in the assay with HCT-116 colon is 1.73 µM; in the assay with K-562 leukemia, 2.14 µM; with MALME-3M melanoma it was 1.85 µM; in the assay with NCI-H23 lung it was 2.01 µM; with NCI/ADR-RES ovarian it was 1.8 µM; in the assay with PC-3 prostate, 1.04 µM. Further, the GI50 in the assay with TK-10 renal is 1.56 µM; in the assay with UACC-257 melanoma, 2.13 µM. For the same compound, the TGI with HCT-116 colon was 3.19 µM; in the assay with K-562 leukemia, 5.49 µM; with MALME-3M melanoma, 3.41 µM; in the assay with NCI-H23 lung it was 4.22 µM; in the assay on NCI/ADR-RES ovarian, 3.82 µM; in the assay on PC-3 prostate, 2.25 µM. In addition, the TGI turned out to be 3.12 µM in the assay on TK-10 renal and 4.2 µM with UACC-257 melanoma.

Consider `CCN(CC)CCOc1ccc(/C(=C(\C)Cc2ccc(OC)cc2)c2ccc(O)cc2)cc1`, for which the GI50 in the assay on CCRF-CEM leukemia is 2.19 µM; with K-562 leukemia, 1.37 µM; with MALME-3M melanoma, 1.73 µM; in the assay with NCI-H23 lung, 1.98 µM; with NCI/ADR-RES ovarian, 2.43 µM; with PC-3 prostate, 1.54 µM. For the same compound, the GI50 in the assay with RPMI-8226 leukemia is 1.79 µM; in the assay with TK-10 renal it was 1.82 µM; in the assay on UACC-257 melanoma it was 1.89 µM. Moreover, the TGI with CCRF-CEM leukemia is 5.1 µM; in the assay with K-562 leukemia, 3.99 µM; in the assay on MALME-3M melanoma it was 3.28 µM; with NCI-H23 lung, 5.08 µM; in the assay on NCI/ADR-RES ovarian it was 7.74 µM; in the assay on PC-3 prostate, 3.26 µM. Besides, the TGI was 3.88 µM in the assay on RPMI-8226 leukemia, 3.68 µM with TK-10 renal and 3.81 µM in the assay on UACC-257 melanoma.

In the case of `CC[C@@]1(O)C(=O)OCc2c1cc1n(c2=O)Cc2cc3cc(O)ccc3nc2-1`, the GI50 with HCT-116 colon was 0.0228 µM and 0.0176 µM; in the assay with K-562 leukemia it was 0.0419 µM and 0.0427 µM; with MALME-3M melanoma, 0.0567 µM; in the assay with RPMI-8226 leukemia, 0.139 µM and 0.277 µM; in the assay on UACC-257 melanoma, 0.047 µM and 0.156 µM. For the same compound, the TGI in the assay on HCT-116 colon was 13.7 µM; with K-562 leukemia it was 24.7 µM and > 46.5 µM; in the assay on MALME-3M melanoma it was 1.45 µM and 0.877 µM; in the assay with NCI-H23 lung, 0.109 µM and 0.0424 µM; in the assay on NCI/ADR-RES ovarian, 0.225 µM and 0.109 µM; in the assay with PC-3 prostate, above 100 µM. Also, the TGI with RPMI-8226 leukemia was 6.03 µM and 4.87 µM; with TK-10 renal, 44.9 µM; in the assay on UACC-257 melanoma it was 0.481 µM and 2.1 µM.

With `COC(=O)COc1ccccc1/C=C1/N=C(c2ccccc2)N(c2c(C)n(C)n(-c3ccccc3)c2=O)C1=O`, the GI50 is above 100 µM with HCT-116 colon; 75.1 µM with K-562 leukemia; above 100 µM with MALME-3M melanoma; above 100 µM in the assay with NCI-H23 lung; above 100 µM in the assay on NCI/ADR-RES ovarian; above 100 µM with PC-3 prostate. Moreover, the GI50 with RPMI-8226 leukemia is 28.9 µM; with TK-10 renal it was above 100 µM. Further, the TGI in the assay with HCT-116 colon, in the assay with K-562 leukemia, in the assay with MALME-3M melanoma, in the assay on NCI-H23 lung, in the assay on NCI/ADR-RES ovarian and in the assay with PC-3 prostate was above 100 µM throughout. Besides, the TGI in the assay on RPMI-8226 leukemia and in the assay with TK-10 renal was above 100 µM in each case.

Values taken from PubChem BioAssay (NCI).
